# From patent publication US20110281815A1, “Parental formulations of gemcitabine derivatives” (CLAVIS PHARMA AS, priority 2009, published 2011)
# Assays:
# [1] = drug load / particle formation of gemcitabine-5′-elaidate in alternative formulations; assay type: physicochemical
# Description: Particle formation without the use of phospholipids was not successful. Gemcitabine-5′-elaidic acid ester was dissolved in ethanol in a weight ratio of 1:24. The mixture was stirred until all solid material was dissolved.
# The ethanol solution was thereafter injected into a […] with vigorous mixing. The weight ratio of ethanol solution to the glycerol solution was 1:12. The mixture appeared to contain conglomerates as determined by visual inspection.
# Mixed micellar formulations with phospholipids and non-ionic surfactants were not successful in preparation of high drug load formulations. Mixed micelles were prepared using a 1:1 weight ratio of egg lecithin:Tween 20 for a final concentration of 50 mg/mL dissolved solids.
# Liposomal formulations with egg lecithin and oleic acid were not successful in preparation of high drug load formulations. Liposomes were prepared by means of dissolution of gemcitabine-5′-elaidate, egg lecithin, and oleic acid in a molar ratio of 1:14.4:2 in ethanol. The solvent was evaporated and the residual solids dispersed into 2.6% glycerol in water using an Ultraturrax followed by high pressure homogenization. Stable formulations could be achieved up to 3 mg/mL gemcitabine-5′-elaidate.
# (§1) It was investigated if the unexpectedly high concentration (15 mg/mL-60 mg/mL) of the active compound achieved in the formulations described in Examples 1 through 7, and under section 6, Manufacture of the Formulation, was unique to a chemical compound as shown in Formula (I) or if the method was of a more general nature. The structurally similar compound elacytarabine (ara-C-5′-elaidic acid ester) as shown in Formula (II) was used as a related model substance. This model substance contains the same 5′-elaidic acid ester moiety as found in Formula (I) (R1=R3=H, R2=elaidate), and the same cytosine nucleoside ring system. The minor difference between the compounds described in Formula (I) and Formula (II) is the substitution at the 2′ position of the ribose ring for Formula (I) contains geminal fluorines, while Formula (II) contains H and OH.
# [2] = human, in vivo
# Description: (§2) The intravenous formulation of gemcitabine-5′-elaidic acid ester as described in Example 1 was used in a phase I, first in human clinical study. The aims of this study were to determine the safety, toxicity, MTD (Maximum Tolerated Dose) and the RD (Recommended Dose) of gemcitabine-5′-elaidic acid ester, to describe its pharmacokinetic (PK) characteristics, and to assess its preliminary antitumor activity.
# (§3) Gemcitabine-5′-elaidic acid ester was administered on days (d) 1, 8 and 15 every 4 week by a 30 min IV infusion. The dose range was from 30 to 1600 mg/m2/d. 43 patients were enrolled and the RD was established at 1250 mg/m^2/d. […] Stabilisation of disease (>3 months) reported in 7 patients (pancreas, colon and ovarian cancer) lasting between 3.5 to >8 months.
# [3] = system: pancreas, colon and ovarian cancer; experiment: phase I clinical study: preliminary antitumor activity; assay type: in vivo, human
# Description: as §2, §3
# [4] = human, in vivo; remark: listed apart in the source
# Description: as §2, §3
# Gemcitabine-5′-elaidic acid ester was detected in plasma up to 24 hrs post-dosing. […] Urinary excretion of the main metabolite, dFdU, during the first 24 hrs was 48-71% of the dose.
# [5] = buffer, pH 7.4
# [6] = rapid deamination to dFdU; cited from earlier work
# [7] = formulation of elacytarabine model substance with egg PC/egg PG; assay type: physicochemical
# Description: as §1
# It is concluded that the Formula I compound provides unexpectedly unique attributes of high loading and stability to the described lipid based formulations.
compound,measurement,setting,value
CCCCCCCC/C=C/CCCCCCCC(=O)OC[C@H]1O[C@@H](n2ccc(N)nc2=O)C(F)(F)[C@@H]1O [gemcitabine-5′-elaidic acid ester],maximal concentration of gemcitabine-5′-elaidate in mixed micelles,"[1]; 1:1 egg lecithin:Tween 20, 50 mg/mL dissolved solids",less than 5 mg/mL
same,concentration up to which stable liposomal formulations could be achieved,"[1]; egg lecithin and oleic acid liposomes, 2.6% glycerol in water",up to 3 mg/mL
same,maximal concentration of gemcitabine-5′-elaidate in mixed micelles,[1]; egg lecithin with glycholic acid as surfactant,2 mg/mL
same,particle formation without phospholipids,"[1]; ethanol solution injected into water for injection, homogenization attempted",not capable of forming stable particles
same,most frequent toxicities,[2],"nausea, fatigue, vomiting and anorexia"
same,RD (Recommended Dose),[2]; iv,1250 mg/m^2/d
same,recommended dose for intravenous administration,[2]; iv,1250 mg/m^2
same,"stabilisation of disease (>3 months), number of patients","[3]; 43 patients enrolled, pancreas, colon and ovarian cancer",7 patients
same,reduction in tumor mass,[3]; one patient with ovarian cancer,28.3%
same,AUC for gemcitabine (dFdC) exposure versus intravenous gemcitabine at comparable dose levels,[4],significantly higher
same,time detected in plasma post-dosing,[4]; iv,up to 24 hrs
same,half life (hydrolytic degradation),[5],approximately 30 minutes
"Nc1ccn([C@@H]2O[C@H](CO)[C@@H](O)C2(F)F)c(=O)n1 [gemcitabine, 2′,2′-difluorodeoxy-cytidine]",half-life of gemcitabine in plasma,[6],approximately 10 minutes
"CCCCCCCC/C=C/CCCCCCCC(=O)OC[C@H]1O[C@@H](n2ccc(N)nc2=O)[C@@H](O)[C@@H]1O [Elacytarabine, ara-C-5′-elaidic acid ester]",Particle size (Z-.avg),"[7]; Egg PC/egg PG, 10 mg/mL",(Z-.avg) 97 nm
same,outcome after filtration,"[7]; Egg PC/egg PG, 10 mg/mL",Large lipid agglomerates
same,outcome upon storage,"[7]; Egg PC/egg PG, 15 mg/mL, storage at 2-8° C.",Precipitation
same,Final content,"[7]; Egg PC/egg PG, elacytarabine concentration 10 mg/mL",Final content 8 mg/ml.
same,Final content,"[7]; Egg PC/egg PG, elacytarabine concentration 15 mg/mL",12 mg/mL
same,formulation outcome,"[7]; Egg PC/egg PG, elacytarabine concentration 20 mg/mL, during homogenisation",Precipitation during
same,formulation outcome,"[7]; Egg PC/egg PG, elacytarabine concentration 30 mg/mL, during solvent injection",Precipitation
same,formulation outcome,[7]; Formula II compound included in excess of 20 mg/mL,precipitation during processing
same,formulation outcome on storage,"[7]; target concentrations of less than 15 mg/mL, precipitation and agglomeration",unstable during storage
